According to US12678512B2, “Anti-EGFR antibody-drug conjugate with a cyclic dinucleotide derivative” (DAIICHI SANKYO COMPANY, LIMITED, priority 2020, dated 2026):

Tests used:
[1] = target: T1, human REF mutant (Hu-REF) STING C-terminal binding domain protein (Homo sapiens, UniProt Q86WV6); assay: Protein thermal shift assay, STING binding; conditions: test compound final concentration 0.5 mM
T1 construct: made in house; host or cells: E. coli Rosetta 2 (DE3), co-expressed with BirA
Description: (§1) Each expression strain was added to TB broth containing 100 μg/mL ampicillin, 50 μg/mL streptomycin, and 30 μg/mL kanamycin, and cultured at 37° C. The expression was then induced with 100 μM IPTG, and the cells were further cultured at 16° C.
(§2) The culture broth was centrifuged, and the obtained bacteria were suspended in 50 mM HEPES pH8.0, 500 mM NaCl, 20 mM imidazole, 1 mM DTT, 5% (w/v) glycerol, and cOmplete EDTA free, and then frozen and thawed. After the addition of lysozyme and DNase I, the proteins were extracted by sonication, and the supernatant was collected by centrifugation. The resulting supernatant was purified through a HisTrap FF column (GE Healthcare) using an AKTAexpress chromatography system (GE Healthcare, IL, US), made to pass through a Superdex200 16/60 column (GE Healthcare), and eluted with a buffer (20 mM HEPES pH 7.5, 120 mM NaCl, 20% glycerol, 0.8 mM DTT). […] The protein concentration was measured using a Nanodrop 2000 (Thermo Fisher Scientific, MA, US), and each protein was frozen and stored at −80° C. until use.
(§3) The binding of a compound to each STING C-terminal binding domain protein was determined by the protein thermal shift assay, which uses the increase in the thermal denaturation temperature of the protein as an indicator.
(§4) Specifically, an assay buffer (20 mM Tris-HCl pH7.5, 120 mM NaCl) was applied to wells of a 384-well real-time PCR plate. Next, 3 μL of each test compound (final concentration 0.5 mM), 3 μL of SYPRO Orange Protein Gel Stain (Thermo Fisher Scientific) (final concentration: 20× concentration), and 6 μL of the STING protein were mixed in each well while using a plate shaker. A real-time PCR system (Thermo Fisher Scientific) was used to increase the temperature from 25° C. to 95° C. at a rate of 0.03° C. per second, and the thermal denaturation temperature of the protein was measured using the fluorescence emitted by SYPRO Orange as an indicator. The measured values were analyzed using Protein Thermal Shift software (Thermo Fisher Scientific) to determine Tm (the midpoint of the unfolding transition) (° C.) as the temperature at which the rate of increase in fluorescence intensity reached its maximum value. The shift of Tm by the test compound was calculated as ΔTm (° C.) by subtracting, from the Tm value of each compound, the Tm value of the well without the compound.

[2] = target: T2, human HAQ mutant (Hu-HAQ) STING C-terminal binding domain protein (Homo sapiens, UniProt Q86WV6, G230A/H232R/R293Q); assay: Protein thermal shift assay, STING binding; conditions: test compound final concentration 0.5 mM
T2 construct: made in house; host or cells: E. coli Rosetta 2 (DE3), co-expressed with BirA
T2 sequence (Q86WV6 with tags, fused parts or gaps G230A/H232R/R293Q): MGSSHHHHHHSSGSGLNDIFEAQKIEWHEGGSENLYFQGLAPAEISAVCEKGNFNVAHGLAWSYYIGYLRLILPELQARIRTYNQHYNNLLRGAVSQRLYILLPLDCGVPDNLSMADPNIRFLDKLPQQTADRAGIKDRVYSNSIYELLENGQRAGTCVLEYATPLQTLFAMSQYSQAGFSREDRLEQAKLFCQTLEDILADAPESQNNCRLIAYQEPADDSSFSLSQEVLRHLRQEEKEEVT
Description: as §1, §2, §3, §4

[3] = target: T3, mouse wild type (Ms-WT) STING C-terminal binding domain protein (Mus musculus, UniProt Q3TBT3); assay: Protein thermal shift assay, STING binding; conditions: test compound final concentration 0.5 mM
T3 construct: made in house; host or cells: E. coli Rosetta 2 (DE3), co-expressed with BirA
T3 sequence (Q3TBT3 with tags, fused parts or gaps): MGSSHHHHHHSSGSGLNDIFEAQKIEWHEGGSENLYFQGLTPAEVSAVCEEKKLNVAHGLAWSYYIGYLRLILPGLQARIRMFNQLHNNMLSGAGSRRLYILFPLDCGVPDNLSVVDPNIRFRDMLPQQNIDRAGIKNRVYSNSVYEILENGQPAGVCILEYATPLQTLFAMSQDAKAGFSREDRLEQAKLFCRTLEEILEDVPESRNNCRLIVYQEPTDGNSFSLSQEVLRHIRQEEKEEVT
Description: as §1, §2, §3, §4

[4] = system: CT26.WT-chimeraEGFR cells subcutaneously transplanted in BALB/c mouse; assay: Anti-tumor test (5); format: in vivo; conditions: 0.01 mg/kg into the tail vein once on Day 7, FIG. 24
Description: Then, the supernatant was collected, and the CT26.WT was infected therewith.
In addition, the vehicle group was provided in which acetate buffer was administered. The number of mice in each group was 8.

[5] = target: human STING (THP1-Dual cells, HAQ mutant; IRF3 pathway) (Homo sapiens, UniProt Q86WV6, G230A/H232R/R293Q/R71H); assay: Reporter gene assay, human STING agonist activity in THP1-Dual cells
Sequence of human STING (THP1-Dual cells, HAQ mutant; IRF3 pathway) (Q86WV6 whole entry R71H/G230A/H232R/R293Q): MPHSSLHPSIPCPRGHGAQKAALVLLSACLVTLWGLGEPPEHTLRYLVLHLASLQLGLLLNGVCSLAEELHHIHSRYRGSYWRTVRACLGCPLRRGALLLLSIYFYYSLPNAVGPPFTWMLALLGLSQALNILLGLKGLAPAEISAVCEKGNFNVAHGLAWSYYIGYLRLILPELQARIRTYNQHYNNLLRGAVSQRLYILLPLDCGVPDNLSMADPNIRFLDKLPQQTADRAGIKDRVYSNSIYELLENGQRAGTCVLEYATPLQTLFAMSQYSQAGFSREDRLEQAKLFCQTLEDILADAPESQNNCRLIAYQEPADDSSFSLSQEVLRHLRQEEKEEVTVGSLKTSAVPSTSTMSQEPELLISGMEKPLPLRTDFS
Description: Human STING agonist activity was evaluated using THP1-Dual™ cells (HAQ mutant) (InvivoGen, CA, US), in which activation of the interferon regulatory factor-3 (IRF3) pathway, which is downstream of the STING pathway, could be checked.
The assay was conducted as follows. First, each test compound diluted in PBS was dispensed at 20 μL/well of a transparent 96-well plate (Corning, NY, US). […] The cells were cultured for 24 h under conditions at 37° C. and 5% CO2, and then centrifuged to collect the supernatant. Next, 6 μL of the collected supernatant was added to a white 384-well plate, and 15 μL of QUANTI-Luc (InvivoGen) solution was added thereto. After well mixing, the luminescence was measured using a plate reader (PerkinElmer, MA, US).

[6] = system: mouse bone marrow-derived dendritic cells; assay: Co-culture assay with CT26.WT or CT26.WT-hCD70 cell line and mouse bone marrow-derived dendritic cells; format: cell-based; conditions: conditions DC, 20 h incubation, FIG. 12
From the text: CT26.WT (CRL2638), a mouse colon cancer cell line purchased from American Type Culture Collection, was transduced with human CD70 gene (NP_001243) to establish CT26.WT-hCD70 cells. Specifically, a pLVSIN lentiviral vector (Takara Bio), in which the human CD70 gene was inserted, was constructed. Next, Lenti-X293T cell line (Takara Bio) was transfected with the vector using a Lentiviral High Titer Packaging Mix (Takara Bio). Then, the supernatant was collected, and the CT26.WT was infected therewith. The cells were maintained in medium supplemented with 10 μg/mL puromycin (Thermo Fisher Scientific).
Mouse bone marrow cells were collected from the femur of 5-week-old female BALB/c mice (BALB/cAnNCrlCrlj) (Charles River, Japan). The mouse bone marrow cells were cultured in the presence of […] murine GM-CSF (PEPROTECH) for 7 days to obtain mouse bone marrow-derived dendritic cells. 1.5×10^5 CT26.WT or CT26.WT-hCD70 cell line cells and 1×10^5 mouse bone marrow-derived dendritic cells were seeded per well of a 96-well plate. Each test compound was diluted in RPMI medium (Invitrogen), and 200 μL was added. […] The cells were washed with FCM buffer again and analyzed using a Fortessa (BD Biosciences). MFI of CD86 in CD45^+, CD11c^+, and I-A/I-E^+ fraction was calculated. Then, the ratio with respect to the test compound-free group was calculated. […]

[7] = target: T4, human wild-type (Hu-WT) STING C-terminal binding domain protein (Homo sapiens, UniProt Q86WV6, H232R); assay: Protein thermal shift assay, STING binding; conditions: test compound final concentration 0.5 mM
T4 construct: made in house; host or cells: E. coli Rosetta 2 (DE3), co-expressed with BirA
T4 sequence (Q86WV6 with tags, fused parts or gaps H232R): as the sequence (Q86WV6 with tags, fused parts or gaps G230A/H232R/R293Q) above, with A131G, Q194R counted along it
Description: as §1, §2, §3, §4

[8] = system: CT26.WT-hEGFR cells subcutaneously transplanted in BALB/c mouse; assay: Anti-tumor test (2); format: in vivo; conditions: 1.5 mg/kg into the tail vein once on Day 12, FIG. 15
From the text: CT26.WT (CRL2638), a mouse colon cancer cell line purchased from American Type Culture Collection, was transduced with the human EGFR gene (NP_005219.2) to establish CT26.WT-hEGFR cells. Specifically, a pLVSIN lentiviral vector (Takara Bio), in which the human EGFR gene was inserted, was constructed. Next, Lenti-X293T cell line (Takara Bio) was transfected with the vector using a Lentiviral High Titer Packaging Mix (Takara Bio). Then, the supernatant was collected, and the CT26.WT was infected therewith. The cells were maintained in medium supplemented with 10 μg/mL puromycin (Thermo Fisher Scientific).
CT26.WT-hEGFR cells were suspended in saline. Ne×t, 3×10^6 cells were transplanted subcutaneously into the right axillary region of each BALB/c mouse (Day 0), and random grouping was conducted after 12 days. […] In addition, the vehicle group was provided in which acetate buffer was administered. The number of mice in each group was 8.

T1 sequence (Q86WV6 with tags, fused parts or gaps, change not shown): as the sequence (Q86WV6 with tags, fused parts or gaps G230A/H232R/R293Q) above, with A131G, R133H, Q194R counted along it

Compound	ΔTm at 500 µM [1]	ΔTm at 500 µM [2]	ΔTm at 500 µM [3]	tumor growth (tumor volume) [4]	EC50 [5]	CD86 expression on mouse dendritic cells (ratio of MFI with respect to the compound-free group) [6]	ΔTm at 500 µM [7]	tumor growth (tumor volume) [8]
O=C(CO)NCCn1cnc2c(ncn2[C@@H]2O[C@@H]3COP(=O)(S)O[C@H]4[C@@H](F)[C@H](n5cc6c7c(ncnc75)SCCC6)O[C@@H]4COP(=O)(S)O[C@@H]2[C@@H]3O)c1=O (single isomer, unassigned) [Compound 50b]	6.3 °C	15.3 °C	7.4 °C	–	–	–	–	–
O=c1c2ncn([C@@H]3O[C@@H]4COP(=O)(S)O[C@H]5[C@@H](F)[C@H](n6cc7c8c(ncnc86)NCCC7)O[C@@H]5COP(=O)(S)O[C@@H]3[C@@H]4O)c2ncn1CCO (single isomer, unassigned) [Compound 34a]	–	–	–	tumor growth was not inhibited	200 nM	caused an increase in CD86 expression on mouse dendritic cells in all conditions	–	–
O=c1c2ncn([C@@H]3O[C@@H]4COP(=O)(S)O[C@H]5[C@@H](O)[C@H](n6cc7c8c(ncnc86)NCCC7)O[C@@H]5COP(=O)(S)O[C@@H]3[C@@H]4O)c2ncn1CCO (single isomer, unassigned) [Compound 6b]	3.4 °C	11.3 °C	12.9 °C	–	2100 nM	–	8.4 °C	–
anti-EGFR antibody 1: IgG1 isotype with LALA mutation, produced with reference to the Vectibix review report; light chain SEQ ID NO: 9, heavy chain SEQ ID NO: 10	–	–	–	–	–	–	–	tumor growth was not inhibited
